From US8143255B2, “Heteroalkyl linked pyrimidine derivatives” (S*BIO Pte Ltd., priority 2005, dated 2012) come the findings set out here.

SMILES strings stand for the structures. Where only a bound is given, the exact number is not on record here.

In one assay the target is T1, CDK2/CyclinA (Homo sapiens, UniProt P24941).
T1 construct: purchased Invitrogen PV3267
The experiment in a line: In vitro kinase activity assay (PKLight), CDK2/Cyclin A. The assay is classed as biochemical. As to conditions: recombinant CDK2/Cyclin A, RbING substrate, 0.5 μM ATP, 2 hr. As to the method:
(§1) All assays were carried out in 384-well white microtiter plates using the PKLight assay system from Cambrex (East rutherford, N.J.). This assay platform is essentially a luminometdc assay for the detection of ATP in the reaction using a luciferase-coupled reaction. For CDK2/Cyclin A assay, the reaction mixture consisted of the following components in 25 μL assay buffer (50 mM Hepes pH 7.5, 10 mM MgCl2, 5 mM MnCl2, 5 mM BGP, 1 mM DTT, 0.1 mM sodium orthovanadate), 1.4 μg/mL of CDK2/Cyclin A complex, 0.5 μM of RbING substrate (Invitrogen, Cat # PV2939) and 0.5 μM of ATP. The compounds were tested at 8 concentrations prepared from 4-fold serial dilution starting at 10 μM. The reaction was incubated at room temperature for 2 hr. 13 μL of PKLight ATP detection reagent was added and the reaction was incubated for 10 min. Luminescence signals were detected on a multi-label plate reader (Victor^2 V 1420, Perkin-Elmer). The other kinase assays were identical except for the following differences in reagents. For FLT3 assays, the reaction contained 2.0 μg/mL FLT3 enzyme, 5 μM of poly(Glu,Tyr) substrate (Sigma, Cat # P0275) and 4 μM of ATP. For JAK2 assays, the reaction contained 0.6 μg/mL of JAK2 enzyme, 2 μM of poly(Glu,Ala,Tyr) substrate (Sigma, Cat # P3899) and 0.2 μM of ATP. […] The analytical software, Prism 4.0 (GraphPad Software Pte Ltd) was used to generate IC50 values from the data.

The next assay deals with T2, FLT3 (Homo sapiens, UniProt P36888).
T2 construct: purchased Invitrogen PV3182
T2 sequence (P36888 27-993): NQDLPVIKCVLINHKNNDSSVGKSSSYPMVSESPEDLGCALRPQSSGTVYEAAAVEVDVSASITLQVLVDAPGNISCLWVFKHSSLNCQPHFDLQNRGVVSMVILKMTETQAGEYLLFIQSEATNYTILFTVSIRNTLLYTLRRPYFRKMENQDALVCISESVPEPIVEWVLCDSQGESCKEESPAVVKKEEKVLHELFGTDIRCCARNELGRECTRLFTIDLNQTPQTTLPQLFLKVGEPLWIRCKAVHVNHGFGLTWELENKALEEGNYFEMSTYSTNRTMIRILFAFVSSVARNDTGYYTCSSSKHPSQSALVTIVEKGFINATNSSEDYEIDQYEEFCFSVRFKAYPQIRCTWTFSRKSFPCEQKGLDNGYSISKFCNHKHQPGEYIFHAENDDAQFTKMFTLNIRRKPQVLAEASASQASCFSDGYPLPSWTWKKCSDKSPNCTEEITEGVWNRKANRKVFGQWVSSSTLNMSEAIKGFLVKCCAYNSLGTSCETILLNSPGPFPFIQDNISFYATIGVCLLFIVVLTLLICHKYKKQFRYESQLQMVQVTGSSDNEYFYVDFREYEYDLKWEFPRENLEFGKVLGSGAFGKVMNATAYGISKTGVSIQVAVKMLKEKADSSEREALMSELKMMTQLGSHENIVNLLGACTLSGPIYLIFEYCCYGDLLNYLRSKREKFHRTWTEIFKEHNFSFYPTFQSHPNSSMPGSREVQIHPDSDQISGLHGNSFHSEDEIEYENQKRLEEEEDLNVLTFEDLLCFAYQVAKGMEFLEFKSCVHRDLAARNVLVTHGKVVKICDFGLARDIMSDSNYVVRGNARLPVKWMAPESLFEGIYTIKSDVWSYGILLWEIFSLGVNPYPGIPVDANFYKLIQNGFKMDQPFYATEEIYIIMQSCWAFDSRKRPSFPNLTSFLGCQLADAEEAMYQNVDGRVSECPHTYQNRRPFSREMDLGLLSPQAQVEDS
The assay can be described thus: In vitro kinase activity assay (PKLight), FLT3. The following applies: recombinant FLT3, poly(Glu,Tyr) substrate, 4 μM ATP. Type of assay: biochemical. The protocol:
The recombinant enzymes (CDK2/CyclinA, FLT3, JAK2 and JAK2 V617F) were purchased from Invitrogen (Cat # PV3267, 3182, 4210 and 4347 respectively). All assays were carried out in 384-well white microtiter plates using the PKLight assay system from Cambrex (East rutherford, N.J.). This assay platform is essentially a luminometdc assay for the detection of ATP in the reaction using a luciferase-coupled reaction. For CDK2/Cyclin A assay, the reaction mixture consisted of the following components in 25 μL assay buffer (50 mM Hepes pH 7.5, 10 mM MgCl2, 5 mM MnCl2, 5 mM BGP, 1 mM DTT, 0.1 mM sodium orthovanadate), 1.4 μg/mL of CDK2/Cyclin A complex, 0.5 μM of RbING substrate (Invitrogen, Cat # PV2939) and 0.5 μM of ATP. The compounds were tested at 8 concentrations prepared from 4-fold serial dilution starting at 10 μM. The reaction was incubated at room temperature for 2 hr. 13 μL of PKLight ATP detection reagent was added and the reaction was incubated for 10 min. Luminescence signals were detected on a multi-label plate reader (Victor^2 V 1420, Perkin-Elmer). The other kinase assays were identical except for the following differences in reagents. For FLT3 assays, the reaction contained 2.0 μg/mL FLT3 enzyme, 5 μM of poly(Glu,Tyr) substrate (Sigma, Cat # P0275) and 4 μM of ATP. For JAK2 assays, the reaction contained 0.6 μg/mL of JAK2 enzyme, 2 μM of poly(Glu,Ala,Tyr) substrate (Sigma, Cat # P3899) and 0.2 μM of ATP. For JAK2 V617F mutant assays, the reaction contained 8.0 μg/mL of JAK2 mutant enzyme, 2 μM of poly(Glu,Ala,Tyr) substrate (Sigma, Cat # P3899) and 0.2 μM of ATP. The analytical software, Prism 4.0 (GraphPad Software Pte Ltd) was used to generate IC50 values from the data. […] IC50 values are shown below in Table 3.

The target in another assay is T3, JAK2 (Homo sapiens, UniProt O60674).
T3 construct: purchased Invitrogen PV4210
The assay can be described thus: In vitro kinase activity assay (PKLight), JAK2. Type of assay: biochemical. As to conditions: recombinant JAK2, poly(Glu,Ala,Tyr) substrate, 0.2 μM ATP. The protocol:
as §1

The target of a further assay is T4, JAK2 V617F (Homo sapiens, UniProt O60674, V617F).
T4 construct: purchased Invitrogen PV4347
The experiment in a line: In vitro kinase activity assay (PKLight), JAK2 V617F mutant. The assay is classed as biochemical. As to conditions: recombinant JAK2 V617F mutant, poly(Glu,Ala,Tyr) substrate, 0.2 μM ATP. The protocol:
as §1

The test system of assay [1] is HL60 (acute myeloid leukemia cell line). The experiment in a line: Cell-based proliferation assay, HL60. As to conditions: Homo sapiens, HL-60; HL60 cells, 96 h treatment. The protocol:
(§2) Human cancer cell lines HL60 (acute myeloid leukemia cell line), Colo205 (colon adenocarcinoma cell line), HEL92.1.7 (erythroleukemia cell line), MV4-11 (acute myeloid leukemia cell line) and DU145 (metastatic prostate cancer cell line) were obtained from ATCC. They were cultivated in the media according to the ATCC work instructions. Colo205 and DU145 cells were seeded in 96-wells plate 5000 cells per cell and 1000 cells per well respectively. HEL92.1.7 and MV4-11 cells were seeded at 6000 cells per well while HL60 cells were seeded at 8000 cells per well in 96 well plate. The plates were incubated at 37° C., 5% CO2, for 24 h. Cells were treated with compounds at various concentrations for 96 h. Cell growth was then monitored using Celltiter96 Aqueous One Solution Cell Proliferation Assay from Promega (Madison Wis.). Dose response curves were plotted to determine GI50 values for the compounds using XL-fit (ID Business Solution, Emeryville, Calif.).

Assay [2] concerns Colo205 (colon adenocarcinoma cell line). The assay can be described thus: Cell-based proliferation assay, Colo205. The following applies: Homo sapiens, COLO 205; Colo205 cells, 96 h treatment. As to the method:
as §2

Assay [3] concerns HEL92.1.7 (erythroleukemia cell line). The assay can be described thus: Cell-based proliferation assay, HEL92.1.7. As to conditions: Homo sapiens, HEL 92.1.7; HEL92.1.7 cells, 96 h treatment. As to the method: as §2
Assay [4] deals with MV4-11 (acute myeloid leukemia cell line). The experiment in a line: Cell-based proliferation assay, MV4-11. The following applies: Homo sapiens; MV4-11 cells, 96 h treatment. As to the method:
as §2

Assay [5] deals with DU145 (metastatic prostate cancer cell line). The experiment in a line: Cell-based proliferation assay, DU145. As to conditions: Homo sapiens, DU-145; DU145 cells, 96 h treatment. The protocol: as §2

T3 sequence (O60674 whole entry): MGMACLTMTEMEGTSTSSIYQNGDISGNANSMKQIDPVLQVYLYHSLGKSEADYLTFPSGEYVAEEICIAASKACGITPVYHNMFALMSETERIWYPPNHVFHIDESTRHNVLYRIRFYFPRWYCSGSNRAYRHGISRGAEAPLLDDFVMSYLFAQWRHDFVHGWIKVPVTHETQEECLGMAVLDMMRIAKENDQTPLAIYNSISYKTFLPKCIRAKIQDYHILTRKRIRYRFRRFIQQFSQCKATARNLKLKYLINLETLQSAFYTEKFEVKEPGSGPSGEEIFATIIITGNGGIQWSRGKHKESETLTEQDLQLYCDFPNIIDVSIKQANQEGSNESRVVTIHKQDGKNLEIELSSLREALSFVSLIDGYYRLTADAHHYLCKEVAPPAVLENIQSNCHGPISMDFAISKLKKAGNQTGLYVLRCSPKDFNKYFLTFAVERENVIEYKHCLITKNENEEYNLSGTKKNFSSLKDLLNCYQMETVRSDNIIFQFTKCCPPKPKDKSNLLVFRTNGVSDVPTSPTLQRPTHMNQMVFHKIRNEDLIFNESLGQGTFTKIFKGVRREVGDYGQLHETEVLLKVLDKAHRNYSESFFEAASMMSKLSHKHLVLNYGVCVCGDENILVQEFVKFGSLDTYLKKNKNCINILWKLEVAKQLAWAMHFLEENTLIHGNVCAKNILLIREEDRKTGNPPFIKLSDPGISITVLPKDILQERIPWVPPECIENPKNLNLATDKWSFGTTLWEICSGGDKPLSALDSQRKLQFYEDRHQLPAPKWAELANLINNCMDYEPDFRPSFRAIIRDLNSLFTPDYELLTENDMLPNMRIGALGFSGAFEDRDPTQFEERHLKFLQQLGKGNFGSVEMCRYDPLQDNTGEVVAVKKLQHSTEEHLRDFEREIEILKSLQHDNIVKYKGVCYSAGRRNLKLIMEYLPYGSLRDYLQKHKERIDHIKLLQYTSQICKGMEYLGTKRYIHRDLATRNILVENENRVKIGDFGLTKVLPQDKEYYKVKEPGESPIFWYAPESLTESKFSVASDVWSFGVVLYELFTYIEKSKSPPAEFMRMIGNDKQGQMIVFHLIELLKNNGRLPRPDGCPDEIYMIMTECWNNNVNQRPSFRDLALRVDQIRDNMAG
T4 sequence (O60674 whole entry V617F): as the sequence (O60674 whole entry) above, with V617F counted along it

Consider `CN1C/C=C/CCOc2cccc(c2)-c2ccnc(n2)Nc2ccc(OCCN3CCCC3)c(c2)C1` [Compound 40], for which the IC50 at CDK2/CyclinA, on FLT3, on JAK2 and on JAK2 V617F was not above 1000 nM throughout. For the same compound, the concentration for 50% growth inhibition (GI50) in assay [1], in [2], in assay [3], in assay [4] and in assay [5] was not above 1000 nM each time.
In the case of `C1=C/CN(C2CC2)Cc2cc(ccc2OCCN2CCOCC2)Nc2nccc(n2)-c2cccc(c2)OCC/1` [Compound 36], the half-inhibitory concentration (IC50) at CDK2/CyclinA, at FLT3, at JAK2 and on JAK2 V617F was not above 1000 nM each time. The GI50 in assay [1] is not above 1000 nM; in [2], 1000 to 5000 nM; in assay [3] it was 1000 to 5000 nM; in assay [4] it was not above 1000 nM; in assay [5], more than 5000 nM.
As to `CN1C/C=C/CCOc2cc(F)cc(c2)-c2ccnc(n2)Nc2ccc(OCCN3CCCC3)c(c2)C1` [Compound 52], the IC50 at CDK2/CyclinA, at FLT3, on JAK2 and at JAK2 V617F was not above 1000 nM each time. In addition, the GI50 in assay [1], in assay [2], in assay [3], in [4] and in assay [5] was not above 1000 nM in each case.
Take `CN1C/C=C/CCOc2cccc(c2)-c2ccnc(n2)Nc2cccc(c2)C1` [Compound 1]: the IC50 at FLT3, on JAK2 and on JAK2 V617F was not above 1000 nM in each case. Further, the GI50 in assay [1], in assay [2], in [3], in [4] and in [5] was not above 1000 nM throughout.
With `CCN(CC)CCOc1ccc2cc1CN(C)C/C=C/CCOc1cccc(c1)-c1ccnc(n1)N2` [Compound 32], the IC50 on CDK2/CyclinA, at FLT3, at JAK2 and at JAK2 V617F was not above 1000 nM each time. Further, the 50% growth inhibitory concentration (GI50) in assay [1], in assay [2], in [3], in assay [4] and in assay [5] was not above 1000 nM throughout.
As for `CN1Cc2cccc(c2)Nc2nccc(n2)-c2cccc(c2)OCCC2CC2C1` (centres unmarked) [Compound 20], the 50% inhibitory concentration (IC50) on CDK2/CyclinA, on FLT3, on JAK2 and at JAK2 V617F was not above 1000 nM each time. Moreover, the GI50 in assay [1] and in [2] was not above 1000 nM in each case.
`CN1C/C=C/CCOc2cccc(c2)-c2ccnc(n2)Nc2ccc(N3CCOCC3)c(c2)C1` [Compound 39]: the IC50 at CDK2/CyclinA, at FLT3, at JAK2 and on JAK2 V617F was not above 1000 nM throughout. The GI50 in assay [1], in assay [3] and in assay [4] was not above 1000 nM in each case.
For `O=C1CC/C=C/COCc2cccc(c2)Nc2nccc(n2)-c2cccc(c2)N1` [Compound 4], the figures for the IC50 on CDK2/CyclinA, at FLT3 and on JAK2 were 1000 to 5000 nM, more than 5000 nM and more than 5000 nM, respectively. Besides, the 50% growth inhibitory concentration (GI50) in assay [1] was more than 5000 nM; in assay [2], more than 5000 nM; in [3], more than 5000 nM; in assay [4] it was 1000 to 5000 nM; in assay [5] it was more than 5000 nM.
Regarding `O=C1NC/C=C/COCc2cccc(c2)Nc2nccc(n2)-c2cccc1c2` [Compound 17], the IC50 was more than 5000 nM at CDK2/CyclinA, 1000 to 5000 nM on FLT3, not above 1000 nM on JAK2 and not above 1000 nM at JAK2 V617F. Also, the concentration for 50% growth inhibition (GI50) in assay [1], in assay [2], in assay [3], in [4] and in assay [5] was more than 5000 nM throughout.

What is called IC50 is the concentration needed to halve the response being measured. One may read the GI50 as the concentration giving 50% growth inhibition. Read a high GI50 as lower sensitivity of the cells.
